Data as given in article PMC8514546, “Structural basis of the P4B ATPase lipid flippase activity” (Nature Communications, 2021).

Experiments:
[1] = molecular target: T1, Neo1 (Saccharomyces cerevisiae, UniProt P40527); experiment: cryo-EM structure, […] Å; format: binding; conditions: E1-ATP state; AMPPCP at the N and P domain interface; 1 mM (Results) or 2 mM (Methods) AMPPCP, 5 mM MgCl2
T1 construct: full length (1151 residues), N-terminal triple FLAG tag, overexpressed in S. cerevisiae from pRS423 with GAP promoter; monomer, purified in LMNG/CHS
T1 sequence (P40527 1-1151): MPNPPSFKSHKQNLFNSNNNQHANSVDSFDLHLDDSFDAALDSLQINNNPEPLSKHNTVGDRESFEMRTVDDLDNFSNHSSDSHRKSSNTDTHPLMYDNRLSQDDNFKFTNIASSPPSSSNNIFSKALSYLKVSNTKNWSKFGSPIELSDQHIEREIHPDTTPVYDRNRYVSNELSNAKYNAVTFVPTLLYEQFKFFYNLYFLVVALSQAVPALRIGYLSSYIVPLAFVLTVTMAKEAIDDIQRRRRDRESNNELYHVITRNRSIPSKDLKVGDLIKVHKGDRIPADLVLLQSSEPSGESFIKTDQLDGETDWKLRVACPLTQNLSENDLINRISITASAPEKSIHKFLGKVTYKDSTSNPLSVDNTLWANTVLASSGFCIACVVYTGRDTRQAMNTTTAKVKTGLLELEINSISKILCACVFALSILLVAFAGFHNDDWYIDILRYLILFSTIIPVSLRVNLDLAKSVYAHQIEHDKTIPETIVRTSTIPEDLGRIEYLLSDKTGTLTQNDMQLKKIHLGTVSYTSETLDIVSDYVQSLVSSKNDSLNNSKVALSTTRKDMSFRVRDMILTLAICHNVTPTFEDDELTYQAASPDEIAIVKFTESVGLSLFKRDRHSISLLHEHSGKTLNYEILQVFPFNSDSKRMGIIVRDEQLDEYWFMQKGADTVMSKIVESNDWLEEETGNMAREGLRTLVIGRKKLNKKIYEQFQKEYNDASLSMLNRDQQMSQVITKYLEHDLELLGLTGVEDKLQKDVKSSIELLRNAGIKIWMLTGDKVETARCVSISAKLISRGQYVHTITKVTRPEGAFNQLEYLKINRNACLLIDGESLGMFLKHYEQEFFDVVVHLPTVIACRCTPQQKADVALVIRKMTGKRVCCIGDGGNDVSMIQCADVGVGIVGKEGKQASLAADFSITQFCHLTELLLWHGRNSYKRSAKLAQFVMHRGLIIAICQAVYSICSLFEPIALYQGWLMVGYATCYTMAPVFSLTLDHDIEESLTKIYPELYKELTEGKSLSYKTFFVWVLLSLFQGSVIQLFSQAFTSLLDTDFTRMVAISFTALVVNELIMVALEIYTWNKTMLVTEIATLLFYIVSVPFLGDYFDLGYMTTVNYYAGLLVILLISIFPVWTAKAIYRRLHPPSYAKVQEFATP

[2] = molecular target: T1, Neo1; experiment: lipid-stimulated ATP hydrolysis, released phosphate by BIOMOL Green; format: biochemical; conditions: 0.25 mM ATP, 10 mM MgCl2, pH 7.4, 37 °C, LMNG/CHS, lipid in cholate; transport substrate, acyl chain not stated

## Nc1ncnc2c1ncn2[C@@H]1O[C@H](COP(=O)(O)OP(=O)(O)CP(=O)(O)O)[C@@H](O)[C@H]1O [AMPPCP]
[1]
  cryo-EM structure, 5.6 Å: the AMPPCP density is clear and the molecule stabilizes the interface between the N and P domains

## lyso-PS
[2]
  Km: 50.3 ± 8.8 µM
